In patent US9988406B2, “Forms of R)-3-(4-(2-(2-methyltetrazol-5-yl)pyridin-5-yl)-3-fluorophenyl)-5-hydroxymethyl oxazolidin-2-one dihydrogen phosphate” (Merck Sharp & Dohme Corp., priority 2009, dated 2018):

Experiments:
[1] = hygroscopicity / water content of the free acid and salt forms; assay type: physicochemical
[2] = stability of the crystalline free acid and salt forms; assay type: physicochemical

## Cn1nnc(-c2ccc(-c3ccc(N4CC(COP(=O)([O-])O)OC4=O)cc3F)cn2)n1.[Na+] (stereo not shown) [mono-sodium salt]
[1]
  hygroscopicity (in words): very hygroscopic
[1]; material as prepared
  water content: over 10 % by weight

## (R)-3-(4-(2-(2-methyltetrazol-5-yl)pyridin-5-yl)-3-fluorophenyl)-5-hydroxymethyl oxazolidin-2-one dihydrogen phosphate [free acid]
[2]
  stability of the crystalline form (in words): very stable at a relatively high temperature
[1]
  hygroscopicity (in words): non-hygroscopic
